These results are taken from US20260176320A1, “MODULATORS OF G-PROTEIN COUPLED RECEPTORS” (priority 2018, published 2026).

The target in one test is T1, GIP-R (Homo sapiens, UniProt P48546).
T1 sequence (P48546 22-466): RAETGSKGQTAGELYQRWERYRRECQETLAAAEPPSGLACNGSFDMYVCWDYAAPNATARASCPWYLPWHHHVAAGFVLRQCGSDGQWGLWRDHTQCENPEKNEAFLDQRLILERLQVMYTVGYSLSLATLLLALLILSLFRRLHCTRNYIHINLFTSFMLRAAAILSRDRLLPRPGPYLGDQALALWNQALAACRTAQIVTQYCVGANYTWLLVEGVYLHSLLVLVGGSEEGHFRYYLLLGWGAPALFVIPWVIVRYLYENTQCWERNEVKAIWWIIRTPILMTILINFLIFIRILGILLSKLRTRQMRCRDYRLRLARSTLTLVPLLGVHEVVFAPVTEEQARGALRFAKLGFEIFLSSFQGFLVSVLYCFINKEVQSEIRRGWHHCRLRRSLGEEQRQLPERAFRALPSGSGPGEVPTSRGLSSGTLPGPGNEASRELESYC
Description: HitHunter cAMP assay (GIP-R). In kind it is cell-based. Particulars: for Emax: read-out: (Emax) GIP-R. A digest of the protocol:
(§1)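 Suspension cells (10,000/well) in HBSS with 10 mM HEPES, 625 μM IBMX, 0.2% BSA exposed to 22-point 2-fold agonist series in duplicate for 30 min at room temperature. cAMP measured by antibody immunocompetition with overnight development, luminescence read-out.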

For a further test, the target named is GLP-1R (Homo sapiens, UniProt P43220). Description: HitHunter cAMP assay (GLP-1R). In kind it is cell-based. Particulars: for Emax: read-out: (Emax) GLP-1R. Put shortly:
as §1
On the technique in general: cAMP levels reflect the balance of adenylyl cyclase and phosphodiesterase activity.

The mark [1] stands for this setting: Table 3, cAMP, read-out: EC50 GLP-1R/nM.
[2] abbreviates: Table 3A, cAMP, read-out: EC50 GLP-1R/nM.

Where two headings read alike, the source gives them in different places.

GLP-1R, sequence (P43220 24-463): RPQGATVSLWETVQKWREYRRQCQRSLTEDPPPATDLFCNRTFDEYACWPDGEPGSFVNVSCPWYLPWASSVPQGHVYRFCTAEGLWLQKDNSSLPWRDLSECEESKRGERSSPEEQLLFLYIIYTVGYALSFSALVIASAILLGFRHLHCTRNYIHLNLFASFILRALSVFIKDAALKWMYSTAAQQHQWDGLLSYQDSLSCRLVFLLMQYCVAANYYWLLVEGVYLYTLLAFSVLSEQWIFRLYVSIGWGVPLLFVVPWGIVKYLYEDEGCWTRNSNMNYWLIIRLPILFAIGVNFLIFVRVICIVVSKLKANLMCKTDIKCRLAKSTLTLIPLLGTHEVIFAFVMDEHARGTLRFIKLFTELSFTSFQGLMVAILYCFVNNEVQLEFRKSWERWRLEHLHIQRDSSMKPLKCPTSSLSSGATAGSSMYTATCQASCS

With `CCCCCCCCCCCCCCCC(=O)N[C@@H](CCC(=O)NCCCC[C@H](NC(=O)[C@H](CO)NC(=O)[C@@H]1CCCN1C(=O)[C@@H]1CCCN1C(=O)[C@@H]1CCCN1C(=O)[C@H](C)NC(=O)CNC(=O)[C@H](CO)NC(=O)[C@H](CO)NC(=O)[C@@H]1CCCN1C(=O)CNC(=O)CNC(=O)[C@H](C)NC(=O)[C@H](CC(C)C)NC(=O)[C@H](CC(C)C)NC(=O)[C@H](Cc1c[nH]c2ccccc12)NC(=O)[C@H](CC(N)=O)NC(=O)[C@@H](NC(=O)[C@H](Cc1ccccc1)NC(=O)[C@H](CCC(=O)O)NC(=O)C(C)(C)NC(=O)[C@H](C)NC(=O)[C@H](C)NC(=O)[C@H](CCC(N)=O)NC(=O)[C@H](CCCCN)NC(=O)[C@H](CC(=O)O)NC(=O)[C@H](CC(C)C)NC(=O)[C@H](Cc1ccc(O)cc1)NC(=O)[C@@H](NC(=O)[C@H](CO)NC(=O)[C@H](Cc1ccc(O)cc1)NC(=O)[C@H](CC(=O)O)NC(=O)[C@H](CO)NC(=O)[C@@H](NC(=O)[C@H](Cc1ccccc1)NC(=O)[C@@H](NC(=O)CNC(=O)[C@@H](CCC(=O)O)NC(=O)CSCC(=O)NCCN1C(=O)CSC1=O)[C@@H](C)O)[C@@H](C)O)[C@@H](C)CC)C(C)C)C(N)=O)C(=O)O` [Compound 53], the Emax on GIP-R (Table 3, cAMP) stood at 62%; on GIP-R (Table 3A, cAMP), 62%; on GLP-1R (Table 3, cAMP), 99%; on GLP-1R (Table 3A, cAMP), 99%. In addition, the EC50 at GIP-R (Table 3, cAMP, read-out: EC50 GIP-R/nM) is 1 to 10 nM; at GIP-R (Table 3A, cAMP, read-out: EC50 GIP-R/nM), 1 to 10 nM; at GLP-1R (setting [1]) it was 1 to 10 nM; on GLP-1R (setting [2]) it was 1 to 10 nM.
Turning to `CCCCCCCCCCCCCCCC(=O)N[C@@H](CCC(=O)NCCCC[C@H](NC(=O)[C@H](CO)NC(=O)[C@@H]1CCCN1C(=O)[C@@H]1CCCN1C(=O)[C@@H]1CCCN1C(=O)[C@H](C)NC(=O)CNC(=O)[C@H](CO)NC(=O)[C@H](CO)NC(=O)[C@@H]1CCCN1C(=O)CNC(=O)CNC(=O)[C@H](C)NC(=O)[C@H](CC(C)C)NC(=O)[C@H](CC(C)C)NC(=O)[C@H](Cc1c[nH]c2ccccc12)NC(=O)[C@H](CC(N)=O)NC(=O)[C@@H](NC(=O)[C@H](Cc1ccccc1)NC(=O)[C@H](CCC(=O)O)NC(=O)C(C)(C)NC(=O)[C@H](C)NC(=O)[C@H](C)NC(=O)[C@H](CCC(N)=O)NC(=O)[C@H](CCCCN)NC(=O)[C@H](CC(=O)O)NC(=O)[C@H](CC(C)C)NC(=O)[C@H](Cc1ccc(O)cc1)NC(=O)[C@@H](NC(=O)[C@H](CO)NC(=O)[C@H](Cc1ccc(O)cc1)NC(=O)[C@H](CC(=O)O)NC(=O)[C@H](CO)NC(=O)[C@@H](NC(=O)[C@H](Cc1ccccc1)NC(=O)[C@@H](NC(=O)CNC(=O)[C@H](CCC(=O)O)NC(=O)CSCC(=O)NCCN1C(=O)CC[C@@H]1C)[C@@H](C)O)[C@@H](C)O)[C@@H](C)CC)C(C)C)C(N)=O)C(=O)O` (single isomer, unassigned) [Compound 75], the Emax was found to be 39% at GIP-R (Table 3, cAMP); 39% on GIP-R (Table 3A, cAMP); 99% at GLP-1R (Table 3, cAMP); 99% at GLP-1R (Table 3A, cAMP).
In the case of `CC[C@H](C)[C@H](NC(=O)[C@H](CO)NC(=O)[C@H](Cc1ccc(O)cc1)NC(=O)[C@H](CC(=O)O)NC(=O)[C@H](CO)NC(=O)[C@@H](NC(=O)[C@H](Cc1ccccc1)NC(=O)[C@@H](NC(=O)CNC(=O)[C@H](CCC(=O)O)NC(=O)CSCC(=O)NCCN(C)C(=O)c1ccccc1)[C@@H](C)O)[C@@H](C)O)C(=O)N[C@@H](Cc1ccc(O)cc1)C(=O)N[C@@H](CC(C)C)C(=O)N[C@@H](CC(=O)O)C(=O)N[C@@H](CCCCN)C(=O)N[C@@H](CCC(N)=O)C(=O)N[C@@H](C)C(=O)N[C@@H](C)C(=O)NC(C)(C)C(=O)N[C@@H](CCC(=O)O)C(=O)N[C@@H](Cc1ccccc1)C(=O)N[C@H](C(=O)N[C@@H](CC(N)=O)C(=O)N[C@@H](Cc1c[nH]c2ccccc12)C(=O)N[C@@H](CC(C)C)C(=O)N[C@@H](CC(C)C)C(=O)N[C@@H](C)C(=O)NCC(=O)NCC(=O)N1CCC[C@H]1C(=O)N[C@@H](CO)C(=O)N[C@@H](CO)C(=O)NCC(=O)N[C@@H](C)C(=O)N1CCC[C@H]1C(=O)N1CCC[C@H]1C(=O)N1CCC[C@H]1C(=O)N[C@@H](CO)C(=O)N[C@@H](CCCCN)C(N)=O)C(C)C` [Compound 169], the EC50 is > 1000 nM at GIP-R (EC50 GIP-R/nM, Table 3, cAMP); > 1000 nM on GIP-R (read-out: EC50 GIP-R/nM, Table 3A, cAMP); 1 to 10 nM on GLP-1R; 1 to 10 nM at GLP-1R (read-out: EC50 GLP-1R/nM, Table 3A, cAMP). For the same molecule, the maximal response (Emax) at 1 µM on GIP-R (read-out: (Emax) GIP-R at 1 μM) is 6 to 8%. Besides, on GLP-1R, the Emax worked out at 96%.
For `CCCCCCCCCCCCCCCC(=O)N[C@@H](CCC(=O)NCCCC[C@H](NC(=O)[C@H](CO)NC(=O)[C@@H]1CCCN1C(=O)[C@@H]1CCCN1C(=O)[C@@H]1CCCN1C(=O)[C@H](C)NC(=O)CNC(=O)[C@H](CO)NC(=O)[C@H](CO)NC(=O)[C@@H]1CCCN1C(=O)CNC(=O)CNC(=O)[C@H](C)NC(=O)[C@H](CC(C)C)NC(=O)[C@H](CC(C)C)NC(=O)[C@H](Cc1c[nH]c2ccccc12)NC(=O)[C@H](CC(N)=O)NC(=O)[C@@H](NC(=O)[C@H](Cc1ccccc1)NC(=O)[C@H](CCC(=O)O)NC(=O)C(C)(C)NC(=O)[C@H](C)NC(=O)[C@H](C)NC(=O)[C@H](CCC(N)=O)NC(=O)[C@H](CCCCN)NC(=O)[C@H](CC(=O)O)NC(=O)[C@H](CC(C)C)NC(=O)[C@H](Cc1ccc(O)cc1)NC(=O)[C@@H](NC(=O)[C@H](CO)NC(=O)[C@H](Cc1ccc(O)cc1)NC(=O)[C@H](CC(=O)O)NC(=O)[C@H](CO)NC(=O)[C@@H](NC(=O)[C@H](Cc1ccccc1)NC(=O)[C@@H](NC(=O)CNC(=O)[C@H](CCC(=O)O)NC(=O)CSCC(=O)NCCC1CCCC1)[C@@H](C)O)[C@@H](C)O)[C@@H](C)CC)C(C)C)C(N)=O)C(=O)O` [Compound 57], on GIP-R (read-out: (Emax) GIP-R at 1 μM, Table 3, cAMP, at 1 μM), the Emax at 1 µM worked out at 7%. Besides, the Emax on GLP-1R (Table 3, cAMP) was 109%; on GLP-1R (Table 3A, cAMP), 109%. Moreover, the EC50 on GLP-1R (setting [1]) and at GLP-1R (setting [2]) was 0.1 to 1 nM throughout.
On to `CC[C@H](C)[C@H](NC(=O)[C@H](CO)NC(=O)[C@H](Cc1ccc(O)cc1)NC(=O)[C@H](CC(=O)O)NC(=O)[C@H](CO)NC(=O)[C@@H](NC(=O)[C@H](Cc1ccccc1)NC(=O)[C@@H](NC(=O)CNC(=O)[C@H](CCC(=O)O)NC(=O)CC(=O)NCCN1C(=O)c2ccc(C)cc2C1=O)[C@@H](C)O)[C@@H](C)O)C(=O)N[C@@H](Cc1ccc(O)cc1)C(=O)N[C@@H](CC(C)C)C(=O)N[C@@H](CC(=O)O)C(=O)N[C@@H](CCCCN)C(=O)N[C@@H](CCC(N)=O)C(=O)N[C@@H](C)C(=O)N[C@@H](C)C(=O)NC(C)(C)C(=O)N[C@@H](CCC(=O)O)C(=O)N[C@@H](Cc1ccccc1)C(=O)N[C@H](C(=O)N[C@@H](CC(N)=O)C(=O)N[C@@H](Cc1c[nH]c2ccccc12)C(=O)N[C@@H](CC(C)C)C(=O)N[C@@H](CC(C)C)C(=O)N[C@@H](C)C(=O)NCC(=O)NCC(=O)N1CCC[C@H]1C(=O)N[C@@H](CO)C(=O)N[C@@H](CO)C(=O)NCC(=O)N[C@@H](C)C(=O)N1CCC[C@H]1C(=O)N1CCC[C@H]1C(=O)N1CCC[C@H]1C(=O)N[C@@H](CO)C(=O)N[C@@H](CCCCN)C(N)=O)C(C)C` [Compound 126], for which the EC50 at GIP-R (EC50 GIP-R/nM, Table 3, cAMP) was 10 to 100 nM; at GIP-R (EC50 GIP-R/nM, Table 3A, cAMP) it was 10 to 100 nM; at GLP-1R (EC50 GLP-1R/nM, Table 3, cAMP) it was 10 to 100 nM; on GLP-1R (EC50 GLP-1R/nM, Table 3A, cAMP) it was 10 to 100 nM. Also, the Emax at GIP-R (Table 3, cAMP) was 42 to 51%; at GIP-R (Table 3A, cAMP), 42 to 51%; at GLP-1R (Table 3, cAMP), 84%; at GLP-1R (Table 3A, cAMP) it was 84%.

As usually defined, the Emax is the greatest response seen or fitted, relative to the assay's reference.
